Assay results: patent US10323038B2, “Pyrazole compounds and methods of making and using same” (ABIDE THERAPEUTICS, INC., priority 2015, dated 2019)

What was measured:
MAGL = MAGL (Mus musculus (Mouse), UniProt O35678); assay: In vitro competitive activity-based protein profiling, MAGL (mouse); type: biochemical; details: for inhibition at 1 µM: read-out: MAGL % inh. 1 μM (mouse)
Procedure, shortened: (§1)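 Residual MAGL and FAAH activity quantified from fluorescent gel bands after SDS-PAGE. Before that, FP-Rh or HT-01 probe (50 μM stock) labelled for 30 min at 37 °C, following 30 min inhibitor preincubation. Mouse assays used brain membrane fraction or cell lysates, human used prefrontal cortex or cell membranes, all at 1.0 mg/mL protein.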

FAAH = FAAH (Mus musculus (Mouse), UniProt O08914); assay: In vitro competitive activity-based protein profiling, FAAH (mouse); type: biochemical; details: for inhibition at 1 µM: read-out: FAAH % inh. 1 μM (mouse)
FAAH, sequence (O08914 whole entry): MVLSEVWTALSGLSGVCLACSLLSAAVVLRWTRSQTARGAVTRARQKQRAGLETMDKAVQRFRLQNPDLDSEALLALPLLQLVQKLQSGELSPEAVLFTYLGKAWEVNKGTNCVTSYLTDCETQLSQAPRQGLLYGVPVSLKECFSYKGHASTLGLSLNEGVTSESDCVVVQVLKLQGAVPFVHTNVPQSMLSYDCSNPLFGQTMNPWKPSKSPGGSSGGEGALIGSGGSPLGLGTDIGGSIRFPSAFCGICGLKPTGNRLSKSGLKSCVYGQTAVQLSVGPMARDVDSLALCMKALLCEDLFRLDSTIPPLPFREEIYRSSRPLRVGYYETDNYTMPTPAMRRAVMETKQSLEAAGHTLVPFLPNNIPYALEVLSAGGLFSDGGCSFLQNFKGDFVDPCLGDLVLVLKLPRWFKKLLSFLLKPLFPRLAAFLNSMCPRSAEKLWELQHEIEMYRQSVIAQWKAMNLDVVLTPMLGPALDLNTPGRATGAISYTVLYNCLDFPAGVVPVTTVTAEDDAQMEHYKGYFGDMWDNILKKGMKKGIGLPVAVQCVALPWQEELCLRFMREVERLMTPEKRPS
Procedure, shortened: as §1

MAGL, sequence (O35678 whole entry): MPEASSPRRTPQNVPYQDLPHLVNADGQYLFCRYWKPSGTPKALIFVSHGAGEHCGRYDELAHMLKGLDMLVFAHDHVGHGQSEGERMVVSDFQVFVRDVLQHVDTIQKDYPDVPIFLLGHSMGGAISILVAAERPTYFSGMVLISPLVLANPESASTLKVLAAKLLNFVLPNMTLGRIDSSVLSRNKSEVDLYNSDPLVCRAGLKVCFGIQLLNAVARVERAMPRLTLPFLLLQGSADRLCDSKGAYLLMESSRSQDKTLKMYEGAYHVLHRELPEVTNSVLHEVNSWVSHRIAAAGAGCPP

| Structure (SMILES) | inhibition at 1 µM (MAGL) | inhibition at 1 µM (FAAH) | IC50 (MAGL) | IC50 (FAAH) |
| --- | --- | --- | --- | --- |
| CC(=O)N(C)c1cnn(C(=O)N2CC3CN(Cc4cc(C(F)(F)F)ccc4N4CCCC4)CC3C2)c1 (stereo not shown) [Example 128, N-methyl-N-(1-(5-(2-(pyrrolidin-1-yl)-5-(trifluoromethyl)benzyl)octahydropyrrolo[3,4-c]pyrrole-2-carbonyl)-1H-pyrazol-4-yl)acetamide] | ≥ 75% | ≥ 75% | – | – |
| CC(=O)N(C)c1cnn(C(=O)N2CC3CN(Cc4ccc(Cl)c(N5CCOCC5)c4)CC3C2)c1 (stereo not shown) [Example 129, N-(1-(5-(4-chloro-3-morpholinobenzyl)octahydropyrrolo[3,4-c]pyrrole-2-carbonyl)-1H-pyrazol-4-yl)-N-methylacetamide] | ≥ 75% | ≥ 75% | – | – |
| CC(=O)N(C)c1cnn(C(=O)N2CC3CN(Cc4ccc(C(F)(F)F)c(N5CCCC5)c4)CC3C2)c1 (stereo not shown) [Example 130, N-methyl-N-(1-(5-(3-(pyrrolidin-1-yl)-4-(trifluoromethyl)benzyl)octahydropyrrolo[3,4-c]pyrrole-2-carbonyl)-1H-pyrazol-4-yl)acetamide] | ≥ 75% | ≥ 75% | ≤ 100 nM | ≤ 100 nM |
| CC(=O)N(C)c1cnn(C(=O)N2CC3CN(Cc4ccc(N5CCOCC5)cc4C(F)(F)F)CC3C2)c1 (stereo not shown) [Example 131, N-methyl-N-(1-(5-(4-morpholino-2-(trifluoromethyl)benzyl)octahydropyrrolo[3,4-c]pyrrole-2-carbonyl)-1H-pyrazol-4-yl)acetamide] | ≥ 75% | ≥ 75% | ≤ 100 nM | ≤ 100 nM |
| CC(=O)N(C)c1cnn(C(=O)N2CC3CN(Cc4ccc(N5CCCC5)cc4Cl)CC3C2)c1 (stereo not shown) [Example 132, N-(1-(5-(2-chloro-4-(pyrrolidin-1-yl)benzyl)octahydropyrrolo[3,4-c]pyrrole-2-carbonyl)-1H-pyrazol-4-yl)-N-methylacetamide] | ≥ 75% | ≥ 75% | – | – |
| CC(=O)N(C)c1cnn(C(=O)N2C[C@H]3C[C@@H](NCc4ccccc4Cl)C[C@H]3C2)c1 [Example 133, N-(1-(cis-5-(2-chlorobenzylamino)octahydrocyclopenta[c]pyrrole-2-carbonyl)-1H-pyrazol-4-yl)-N-methylacetamide] | 25 to 50% | ≥ 75% | – | – |
| CC(=O)N(C)c1cnn(C(=O)N2C[C@H]3C[C@@H](NCc4ccc(Cl)cc4)C[C@H]3C2)c1 [Example 135, N-(1-(cis-5-(4-chlorobenzylamino)octahydrocyclopenta[c]pyrrole-2-carbonyl)-1H-pyrazol-4-yl)-N-methylacetamide] | ≥ 75% | ≥ 75% | – | – |
| CC(=O)N(C)c1cnn(C(=O)N2C[C@H]3C[C@H](NCc4ccccc4Cl)C[C@H]3C2)c1 [Example 136, N-(1-(trans-5-(2-chlorobenzylamino)octahydrocyclopenta[c]pyrrole-2-carbonyl)-1H-pyrazol-4-yl)-N-methylacetamide] | ≥ 75% | ≥ 75% | 100 to 1000 nM | 100 to 1000 nM |
| CC(=O)N(C)c1cnn(C(=O)N2C[C@H]3C[C@H](NCc4cccc(Cl)c4)C[C@H]3C2)c1 [Example 137, N-(1-(trans-5-(3-chlorobenzylamino)octahydrocyclopenta[c]pyrrole-2-carbonyl)-1H-pyrazol-4-yl)-N-methylacetamide] | ≥ 75% | ≥ 75% | 100 to 1000 nM | 100 to 1000 nM |
| CC(=O)N(C)c1cnn(C(=O)N2C[C@H]3C[C@H](NCc4ccc(Cl)cc4)C[C@H]3C2)c1 [Example 138, N-(1-(trans-5-(4-chlorobenzylamino)octahydrocyclopenta[c]pyrrole-2-carbonyl)-1H-pyrazol-4-yl)-N-methylacetamide] | ≥ 75% | ≥ 75% | – | – |
| CC(=O)N(C)c1cnn(C(=O)N2C[C@H]3C[C@@H](N(C)Cc4ccccc4Cl)C[C@H]3C2)c1 [Example 139, N-(1-(cis-5-((2-chlorobenzyl)(methyl)amino)octahydrocyclopenta[c]pyrrole-2-carbonyl)-1H-pyrazol-4-yl)-N-methylacetamide] | 25 to 50% | ≥ 75% | 1000 to 10000 nM | 100 to 1000 nM |
| CC(=O)N(C)c1cnn(C(=O)N2C[C@H]3C[C@@H](N(C)Cc4cc(C(F)(F)F)ccc4C(F)(F)F)C[C@H]3C2)c1 [Example 140, N-(1-(cis-5-((2,5-bis(trifluoromethyl)benzyl)(methyl)amino)octahydrocyclopenta[c]pyrrole-2-carbonyl)-1H-pyrazol-4-yl)-N-methylacetamide] | ≥ 75% | ≥ 75% | – | – |
| CC(=O)N(C)c1cnn(C(=O)N2C[C@H]3C[C@@H](N(C)Cc4cccc(Cl)c4)C[C@H]3C2)c1 [Example 141, N-(1-(cis-5-((3-chlorobenzyl)(methyl)amino)octahydrocyclopenta[c]pyrrole-2-carbonyl)-1H-pyrazol-4-yl)-N-methylacetamide] | 50 to 75% | ≥ 75% | 100 to 1000 nM | ≤ 100 nM |
| CC(=O)N(C)c1cnn(C(=O)N2C[C@H]3C[C@H](N(C)Cc4cc(N5CCCC5)ccc4C(F)(F)F)C[C@H]3C2)c1 [Example 142, N-methyl-N-(1-(trans-5-(methyl(5-(pyrrolidin-1-yl)-2-(trifluoromethyl)benzyl)amino)octahydrocyclopenta[c]pyrrole-2-carbonyl)-1H-pyrazol-4-yl)acetamide] | ≥ 75% | ≥ 75% | – | – |
| CC(=O)N(C)c1cnn(C(=O)N2C[C@H]3C[C@@H](N(C)Cc4ccc(Cl)cc4)C[C@H]3C2)c1 [Example 143, N-(1-(cis-5-((4-chlorobenzyl)(methyl)amino)octahydrocyclopenta[c]pyrrole-2-carbonyl)-1H-pyrazol-4-yl)-N-methylacetamide] | ≥ 75% | ≥ 75% | 100 to 1000 nM | 100 to 1000 nM |
| CC(=O)N(C)c1cnn(C(=O)N2C[C@H]3C[C@H](N(C)Cc4cc(C(F)(F)F)ccc4N4CCCC4)C[C@H]3C2)c1 [Example 144, N-methyl-N-(1-(trans-5-(methyl(2-(pyrrolidin-1-yl)-5-(trifluoromethyl)benzyl)amino)octahydrocyclopenta[c]pyrrole-2-carbonyl)-1H-pyrazol-4-yl)acetamide] | ≥ 75% | 50 to 75% | – | – |
| CC(=O)N(C)c1cnn(C(=O)N2C[C@H]3C[C@H](N(C)Cc4ccccc4Cl)C[C@H]3C2)c1 [Example 145, N-(1-(trans-5-((2-chlorobenzyl)(methyl)amino)octahydrocyclopenta[c]pyrrole-2-carbonyl)-1H-pyrazol-4-yl)-N-methylacetamide] | ≥ 75% | ≥ 75% | ≤ 100 nM | ≤ 100 nM |
| CC(=O)N(C)c1cnn(C(=O)N2C[C@H]3C[C@H](N(C)Cc4cc(C(F)(F)F)ccc4C(F)(F)F)C[C@H]3C2)c1 [Example 146, N-(1-(trans-5-((2,5-bis(trifluoromethyl)benzyl)(methyl)amino)octahydrocyclopenta[c]pyrrole-2-carbonyl)-1H-pyrazol-4-yl)-N-methylacetamide] | ≥ 75% | ≥ 75% | – | – |
